Active and inactive are the calls of the source. How the calls were made is not given here. A value given as a limit tells only on which side of the number the result lay.

Tested on in one assay: not listed separately
The experiment in a line: GFP reporter counter screen, PhoP regulon inhibitors, Salmonella typhi, fluorescence inhibition (AID 2840). The following applies: Salmonella typhi GFP reporter counter-screen, fluorescence, 4 h; at 150 µM (top of the series). A general note: A counterscreen serves to expose hits that act by an unwanted route or on another target.
By inhibition is commonly meant the relative decrease from the control value, in per cent. Take `COc1ccccc1NC(=O)N1CCCN(Cc2ccccc2F)C1`: the inhibition is 21% (inactive).
The same measure, in the same setting: next, `O=C(Nc1ccccc1)N1CCCN(Cc2ccccc2F)C1`: 14.4% (inactive); `COc1ccc(NC(=S)NCc2ccc(Cl)cc2)cc1`: 8.1% (inactive).
Consider `O=C1C2=C(Nc3ccccc3SC2c2ccsc2)c2ccccc21` (stereo unspecified), for which the inhibition is 13.1% (inactive).
On the same count and under the same terms, in the case of `COc1cccc(C2Sc3ccccc3NC3=C2C(=O)c2ccccc23)c1` (stereo unspecified) it was 14.1% (inactive); in that of `COc1ccc(CNC(=S)Nc2ccncc2)cc1`, 15.2% (inactive); in that of `Fc1ccccc1NC(=S)NCc1ccc(Cl)cc1`, 1.61% (inactive).
With `S=C(NCc1ccccc1Cl)Nc1ccncc1`, the inhibition is 6.49% (inactive).
On to `O=C1C2=C(Nc3ccccc3SC2c2ccc(I)cc2)c2ccccc21` (stereo unspecified), for which the inhibition is 37.4% (inactive).
On to `CCn1cc(C(=O)O)c(=O)c2cc(F)c(N3CCN(C(=S)NC)CC3)cc21`, for which the inhibition was -11.9% (inactive).
Turning to `O=C(Nc1ccccc1Cl)N1CCCN(Cc2ccccc2F)C1`, the inhibition is 0.77% (inactive).
`S=C(NCc1ccc(Cl)cc1)Nc1ccc(Cl)cc1`: the inhibition is 0.06% (inactive).
As to `CCn1cc(C(=O)O)c(=O)c2cc(F)c(N3CCN(C(=S)Nc4ccccc4Cl)CC3)cc21`, the inhibition was 17.6% (inactive).
Same read-out and setting: next, `O=C1C2=C(Nc3ccccc3SC2c2cccc(Cl)c2)c2ccccc21` (stereo unspecified): 14.9% (inactive); `O=C1C2=C(Nc3ccccc3SC2c2ccccc2Br)c2ccccc21` (stereo unspecified): 9.22% (inactive).
Take `O=C(NCc1ccccc1)N1CCCN(Cc2ccccc2F)C1`: the inhibition was -5% (inactive).
As to `S=C(NCc1ccc(Cl)cc1)Nc1ccc(Br)cc1`, the inhibition was 1.55% (inactive).
For `Cc1cccc(NC(=S)NCc2ccc(Cl)cc2)c1`, the inhibition was 3.06% (inactive).
Same read-out and setting: next, `S=C(NCc1ccc(Cl)cc1)Nc1cccc(Cl)c1`: 21.5% (inactive).
As for `Cc1ccc(NC(=S)NCc2ccc(Cl)cc2)cc1`, the inhibition is 1.23% (inactive).
For `O=C1C2=C(Nc3ccccc3SC2c2ccccc2C(F)(F)F)c2ccccc21` (stereo unspecified), the inhibition is 7.85% (inactive).
Consider `CCOc1ccc(NC(=S)N2CCN(c3cc4c(cc3F)c(=O)c(C(=O)O)cn4CC)CC2)cc1`, for which the inhibition was 15.7% (inactive).
For the compound `CCn1cc(C(=O)O)c(=O)c2cc(F)c(N3CCN(C(=S)Nc4ccc(Cl)cc4)CC3)cc21`, the inhibition was 39.1% (inactive).
Take `O=C1C2=C(Nc3ccccc3SC2c2ccccc2Cl)c2ccccc21` (stereo unspecified): the inhibition was 24.5% (inactive).
Still for that read-out and setting: in the case of `CCn1cc(C(=O)O)c(=O)c2cc(F)c(N3CCN(C(=S)NCc4ccccc4)CC3)cc21` it was 13.2% (inactive); in that of `COc1cccc(NC(=S)NCc2ccc(Cl)cc2)c1`, 2.87% (inactive).
Turning to `CCn1cc(C(=O)O)c(=O)c2cc(F)c(N3CCN(C(=S)Nc4ccccc4C)CC3)cc21`, the inhibition was 22% (inactive).
For `S=C(NCc1ccc(Cl)cc1)Nc1cccnc1`, the inhibition is -15.5% (inactive).

A further assay relates to Salmonella typhi GFP reporter counter-screen, fluorescence, 4 h. The description is as above.
Conditions: not given
One may read the IC50 as the concentration at which inhibition is half-maximal. In the case of `CSc1nc2cc(Oc3cccc(Cl)c3Cl)c(Cl)cc2[nH]1`, the IC50 was below 150 nM.
In the case of `C1=C(CCNc2ncnc3c2[nH]c2ccccc23)CCCC1`, the IC50 is below 150 nM.
The same measure, in the same setting: next, `CCCCn1c(NS(=O)(=O)c2ccc(C)cc2)c(S(=O)(=O)c2ccccc2)c2nc3ccccc3nc21`: below 150 nM; `O=S(=O)(Nc1c(S(=O)(=O)c2ccccc2)c2nc3ccccc3nc2n1C1CCCCC1)c1ccccc1`: below 150 nM.
Take `S=C(NCc1ccc(Cl)cc1)Nc1ccncc1`: the IC50 is below 150 nM.
Same read-out and setting: next, `CCn1cc(C(=O)O)c(=O)c2cc(F)c(N3CCN(C(=S)NC(=O)c4ccccc4Cl)CC3)cc21`: below 150 nM; `CCCCn1c(NS(=O)(=O)c2ccccc2)c(S(=O)(=O)c2ccc(C)cc2)c2nc3ccccc3nc21`: below 150 nM; `COc1ccc(NC(=O)c2cc(Br)c(Br)s2)cn1`: below 150 nM.
On to `O=C(Nc1nnc(-c2cccs2)o1)c1cccc(C(F)(F)F)c1`, for which the IC50 is below 150 nM.
For `COc1ccccc1Nc1nc(NCc2ccco2)c2ccccc2n1`, the IC50 is below 150 nM.
Turning to `O=C(O)c1cn(-c2ccc(F)cc2)c2cc(Cl)c(F)cc2c1=O`, the IC50 was below 150 nM.
Turning to `O=c1c2ccccc2[nH]c2ccc(F)cc12`, the IC50 was below 150 nM.
With `COc1c(N2CCN(C(=S)NCc3ccccc3)C(C)C2)c(F)cc2c(=O)c(C(=O)O)cn(C3CC3)c12` (stereo unspecified), the IC50 was below 150 nM.
Turning to `O=C1c2ccccc2C2=Nc3ccccc3SC(c3ccccc3F)C12` (stereo unspecified), the IC50 was below 150 nM.
Turning to `O=C1C2=C(Nc3ccccc3SC2c2ccc(C(F)(F)F)cc2)c2ccccc21` (stereo unspecified), the IC50 is 107000 nM.
On to `CCCCCNC(=O)c1cn(CC)c2cc(N3CCN(C)CC3)c(F)cc2c1=O`, for which the IC50 was below 150 nM.
Consider `Cc1ccc(Nc2cc(C)c3c(O)cccc3n2)cc1C`, for which the IC50 was below 150 nM.
In the case of `CN1CCN(C2=Cc3cc(Cl)ccc3Sc3cc(F)ccc32)CC1`, the IC50 was below 150 nM.
Turning to `CN1CCc2nc(SCC(=O)Nc3cccc(F)c3)c(C#N)c(-c3cccs3)c2C1`, the IC50 is below 150 nM.
Take `O=C(Nc1cccnc1)c1cc(Br)c(Br)s1`: the IC50 is below 150 nM.
Consider `O=C(Nc1ccc(Cl)cc1)N1CCCN(Cc2ccccc2F)C1`, for which the IC50 was below 150 nM.
On to `O=[N+]([O-])c1ccc(CNC2CCCc3ccccc32)cc1` (stereo unspecified), for which the IC50 is below 150 nM.
Regarding `O=C1C2=C(Nc3ccccc3SC2c2ccco2)c2ccccc21` (stereo unspecified), the IC50 is below 150 nM.
`Cc1ccc(CN2CCCN(C(=O)Nc3ccc(Cl)cc3)C2)cc1`: the IC50 is 99800 nM.
Consider `CCn1cc(C(=O)O)c(=O)c2cc(F)c(N3CCN(C(=S)Nc4ccccc4C(F)(F)F)CC3)cc21`, for which the IC50 is 104000 nM.
Take `CCn1cc(C(=O)O)c(=O)c2cc(F)c(N3CCN(C(=S)NC(=O)c4ccccc4F)CC3)cc21`: the IC50 is below 150 nM.
In the case of `CN(C)CCCN(C(=O)CCc1ccccc1)c1nc2ccc(Cl)cc2s1`, the IC50 is below 150 nM.
With `N#C/C(=C\c1ccc[nH]1)C(=O)NC1CC1`, the IC50 was below 150 nM.

These data come from PubChem BioAssay AID2840 (Southern Research Specialized Biocontainment Screening …, 2010).
